According to patent US20180244653A1, “SELECTIVE ALPHA-7 NICOTINIC RECEPTOR AGONISTS AND METHODS FOR MAKING AND USING THEM” (THE REGENTS OF THE UNIVERSITY OF CALIFORNIA, priority 2015, published 2018):
Several values for one entry are separate records, joined by “and”; a condition that tells them apart may be missing. Equal values may be shown once. Entries after “also recorded” stand apart in the source; their conditions may differ. Read-outs that look alike come from different tables or passages of the source.

Key:
[1] = target: T1, 5HT3A receptors (Mus musculus, UniProt P23979); experiment: Intact cell competitive radioligand binding assay ([3H]-granisetron, SPA), LGIC-CNiFERs; conditions: >10 = did not pass initial screen at 10 μM; read-out: Kd ± SD, 5HT3A
T1 construct: expressed in transfected cells; host or cells: HEK293 cells co-expressing TN-XXL
T1 sequence (P23979 24-489): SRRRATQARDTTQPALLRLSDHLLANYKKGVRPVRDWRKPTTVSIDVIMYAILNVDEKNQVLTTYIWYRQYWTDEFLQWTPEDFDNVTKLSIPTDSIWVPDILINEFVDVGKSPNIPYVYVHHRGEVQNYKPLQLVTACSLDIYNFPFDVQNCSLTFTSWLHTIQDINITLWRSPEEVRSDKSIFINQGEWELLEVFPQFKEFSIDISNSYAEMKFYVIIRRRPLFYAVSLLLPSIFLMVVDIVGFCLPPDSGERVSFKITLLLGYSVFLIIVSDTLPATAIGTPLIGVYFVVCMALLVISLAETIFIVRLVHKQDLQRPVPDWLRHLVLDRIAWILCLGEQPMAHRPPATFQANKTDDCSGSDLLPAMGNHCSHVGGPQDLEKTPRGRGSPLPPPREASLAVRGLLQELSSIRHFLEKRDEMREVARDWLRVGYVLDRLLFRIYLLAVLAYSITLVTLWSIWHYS

[2] = system: physiologically induced amnesia mice; experiment: ORT time delay with MLA pretreatment (mechanism of action); assay type: in vivo; conditions: MLA 3 mg/kg 5 min before test compound 10 μmol/kg
Experimental: Methyllycaconitine (MLA) was injected to block the α7-nAChR agonist response. The ORT in natural memory loss mice described above was the study model. […] Each mouse was allowed to explore an open field apparatus for 5 min in a habituation phase. After 24 hours, MLA (3 mg/kg) was injected 5 min before injection of test compounds. After 1 h of injected test compounds, each mouse explored 2 identical objects in the sample phase for 5 min. On the next day, one of the objects was changed to a new one and the mouse was allowed to explore these objects for 5 min. The exploration time of these objects was recorded.
FIG. 30 illustrates discrimination index (TN−TF/TN+TF) of each compound in the test phase of ORT for proving mechanism of action.
For dose finding protocol, the mice were randomly divided into different treatment groups, a control group receiving a vehicle and tested groups receiving PNU-282987 at 3, 10 mg/kg, and IND8, QND8 for 10, 25 μmol/kg, single dose. They were allowed to freely explore the open field apparatus for 5 min for habituation in a day before the experiment (day 1). On the test day (day 2), the test compound was injected 1 h before the sample phase. In this phase, mice were placed in the apparatus to explore two identical objects. On the next day (day 3), one object was changed to a new one and mice were allowed to explore these objects for 5 min in the test phase. […] The exploration time of each object was recorded if the nose of mouse came within 3 cm or touched the objects. The discrimination index (DI) was calculated by using (TN−TF)/(TN+TF); TN and TF represented exploration time of new and familiar objects, respectively.

[3] = target: α7/5HT3A chimera receptor (hα7/m5HT3A), used for α7-nAChRs (UniProt P23979+P36544, M226I/T225I); experiment: Intact cell competitive radioligand binding assay ([3H]-(±)-epibatidine, SPA), LGIC-CNiFERs; conditions: read-out: Kd ± SD, α7-nAChRs; >10 = did not pass initial screen at 10 μM
α7/5HT3A chimera receptor (hα7/m5HT3A), used for α7-nAChRs, sequence (P36544+P23979 fused P36544:T225I/P36544:M226I): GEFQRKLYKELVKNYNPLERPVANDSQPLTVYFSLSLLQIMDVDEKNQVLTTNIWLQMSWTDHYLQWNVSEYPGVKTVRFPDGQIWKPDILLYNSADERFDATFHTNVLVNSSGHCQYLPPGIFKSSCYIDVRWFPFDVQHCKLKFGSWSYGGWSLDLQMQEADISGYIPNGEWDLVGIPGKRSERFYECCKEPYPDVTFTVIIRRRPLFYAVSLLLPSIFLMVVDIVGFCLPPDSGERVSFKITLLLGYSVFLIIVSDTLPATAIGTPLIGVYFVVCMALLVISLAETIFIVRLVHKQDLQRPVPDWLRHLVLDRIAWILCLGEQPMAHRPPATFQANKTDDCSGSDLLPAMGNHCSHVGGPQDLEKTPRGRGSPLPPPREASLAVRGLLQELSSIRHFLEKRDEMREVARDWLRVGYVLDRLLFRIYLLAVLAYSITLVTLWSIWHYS
Experimental: All synthesized compounds were screened for the binding potential with cell based neurotransmitter fluorescent engineered reporters (CNiFERs) expressed α7-nAChRs, α4β2-nAChRs, and 5HT3A receptors. The whole cell binding assay was performed by competitive radioligand binding assay (RBA) using [^3H]-(±)-epibatidine for α7- and α4β2-nAChRs and [^3H]-granisetron for 5HT3A receptors. […] Compounds at 10 μM concentration that dissociated [^3H]-(±)-epibatidine or [^3H]-granisetron binding to LGIC-CNiFERs more than 50% were further determined over a range of concentrations for Kd values.
Cell lines expressing specific subtypes of receptors and a genetically encoded fluorescence resonance energy transfer (FRET)-based calcium sensor (TN-XXL) were prepared^29. The human α7-nAChRs and α4β2-nAChRs were expressed in HEKtsA201 cells, whereas hα7/m5HT3A chimeric receptors and mouse 5HT3A receptors were expressed in HEK293 cells. Cells were cultured in DMEM (Corning, Cellgro, Manassas, Va.) supplemented with 10% FBS (Gibco, Life Technologies, Grand Island, N.Y.) and 1% glutamine (Gibco, Life Technologies, Grand Island, N.Y.) and incubated at 37° C. with 10% CO2.
Cell based neurotransmitter fluorescent engineered reporters (CNiFERs) expressing Ca^2+ permeable LGIC receptors were used to determine the Kd values of the compounds. Cells were harvested by centrifugation (Beckman coulter, Brea, Calif.) at 500 rpm for 5 min, and then mixed and incubated on ice for 30 min, after counting, with Wheat Germ Agglutinin SPA beads (20 mg/mL) (Perkin Elmer, Waltham, Mass.) in Hank's Balanced Salt Solution (HBSS) (Gibco, Life Technologies, Grand Island, N.Y.) at the specified concentrations: 1) hα7/m5HT3A chimera-TN-XXL: 200K cells/well, 1 mg/mL SPA beads 2) hα4β2-TN-XXL: 100K cells/well, 0.5 mg/mL SPA beads, and 3) m5HT3A-TN-XXL: 100K cells/well, 1 mg/mL SPA beads. The compounds were initially screened at 10 μM final concentration. Nonspecific binding was measured by using 100 μM of MLA (Tocris Bioscience, Bristol, UK) for α7/5HT3A chimeric receptors, 10 μM of varenicline (Tocris Bioscience, Bristol, UK) for α4β2-nAChR, and 300 nM of tropisetron (Tocris Bioscience, Bristol, UK) for 5HT3A receptors. After that, the radioactive ligands were added at nM final concentration of [^3H]-(±)-epibatidine for α7/5HT3A chimeric receptors, 5 nM of [^3H]-(±)-epibatidine for α4β2-nAChR, and 10 nM of [^3H]-granisetron for 5HT3A receptors. The mixtures were measured on the Wallac 1450 MicroBeta® Trilux with 1 h intervals for a total of measurements. […] Mean Kd values and standard deviations were calculated from at least 3 independent experiments.

[4] = target: T1, 5HT3A receptors; experiment: FRET functional assay (agonist/antagonist) using LGIC-CNiFERs; assay type: cell-based; conditions: for EC50: * partial agonist, read-out: Agonist EC50 ± SD, 5HT3A; for Functional properties at 5HT3A receptors (agonist / antagonist, type): functional screening and characterization
[5] = target: T2, α4β2-nAChRs (Homo sapiens, UniProt P17787+P43681); experiment: as above; assay type: cell-based; conditions: for EC50: read-out: EC50 ± SD, α4β2; for Functional properties at α4β2-nAChRs (agonist / antagonist, type): functional screening and characterization
T2 construct: expressed in transfected cells; host or cells: HEKtsA201 cells co-expressing TN-XXL
T2 sequence (P43681 29-627 limits assumed): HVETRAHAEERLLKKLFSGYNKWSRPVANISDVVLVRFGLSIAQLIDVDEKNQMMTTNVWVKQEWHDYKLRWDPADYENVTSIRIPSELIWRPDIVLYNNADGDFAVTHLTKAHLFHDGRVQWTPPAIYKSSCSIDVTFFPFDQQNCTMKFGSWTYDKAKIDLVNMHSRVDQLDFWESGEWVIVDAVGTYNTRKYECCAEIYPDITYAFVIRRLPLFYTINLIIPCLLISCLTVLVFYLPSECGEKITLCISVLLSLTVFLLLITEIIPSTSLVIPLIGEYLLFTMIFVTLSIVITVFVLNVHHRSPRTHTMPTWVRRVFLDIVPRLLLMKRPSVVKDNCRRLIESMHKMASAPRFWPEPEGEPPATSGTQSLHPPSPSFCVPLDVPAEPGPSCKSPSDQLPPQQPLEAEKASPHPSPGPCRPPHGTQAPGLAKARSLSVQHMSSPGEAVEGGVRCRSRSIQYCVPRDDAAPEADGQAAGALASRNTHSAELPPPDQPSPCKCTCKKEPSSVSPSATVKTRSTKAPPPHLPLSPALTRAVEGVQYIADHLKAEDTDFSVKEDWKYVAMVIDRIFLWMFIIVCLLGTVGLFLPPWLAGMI
T2 sequence (P17787 26-502): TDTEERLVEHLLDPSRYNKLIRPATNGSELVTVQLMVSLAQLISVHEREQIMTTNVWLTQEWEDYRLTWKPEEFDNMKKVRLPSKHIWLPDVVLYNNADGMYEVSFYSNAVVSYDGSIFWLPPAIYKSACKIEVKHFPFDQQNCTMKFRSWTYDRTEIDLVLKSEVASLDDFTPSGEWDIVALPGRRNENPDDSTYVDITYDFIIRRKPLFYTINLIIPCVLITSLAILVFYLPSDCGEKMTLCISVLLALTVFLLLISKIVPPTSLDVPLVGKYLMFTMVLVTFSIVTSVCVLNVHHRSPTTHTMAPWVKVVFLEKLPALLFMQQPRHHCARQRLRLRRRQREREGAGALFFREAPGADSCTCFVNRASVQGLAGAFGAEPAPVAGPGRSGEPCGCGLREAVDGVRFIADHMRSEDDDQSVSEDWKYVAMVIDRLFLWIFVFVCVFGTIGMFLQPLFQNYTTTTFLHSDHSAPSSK

[6] = >10 = did not pass initial screen

For `c1cc2cc(-c3cn(C4CN5CCC4CC5)nn3)ccc2[nH]1` (stereo not shown) [IND8, 5-((Quinuclid-3-yl)-1H-1,2,3-triazol-4-yl)-1H-indole], the Kd [1] was 50 nM and 52 nM, the “Cognitive enhancement after MLA pretreatment, ORT time delay” value (“Cognitive enhancement” for short) [2] was “complete abolition of the cognitive enhancement; also recorded: abolished by MLA” and the Kd [3] was 120 nM. For the same compound, the “5HT3A agonistic properties relative to α7-nAChR agonistic effect” value [4] was “seven fold lower”, the EC50 [4, 6] was 210 nM and the “Functional properties at 5HT3A receptors (agonist / antagonist, type)” value [4] was “agonistic properties; also recorded: partial agonist”. For the same compound, the EC50 [5, 6] was > 10000 nM, the Kd ([5]; competitive antagonist (^C), >10 = did not pass initial screen, vs (±)-epibatidine, read-out: Antagonist KA ± SD, α4β2) was >10000 nM and the “Functional properties at α4β2-nAChRs (agonist / antagonist, type)” value [5] was “did not elicit agonist or antagonist properties”.
For `O=C(N[C@H]1CN2CCC1CC2)c1ccc(Cl)cc1` [PNU-282987, reference compound], the Kd [1] was > 10000 nM, the “Cognitive enhancement” value [2] was “abolished by MLA” and the Kd [3] was 270 ± 140 nM. The Kd ([4]; Antagonist KA ± SD, 5HT3A, competitive antagonist (^C), >10 = did not pass initial screen, vs 5-HT) was 1200 nM, the EC50 [5, 6] was > 10000 nM and the Kd ([5]; Antagonist KA ± SD, α4β2, competitive antagonist (^C), >10 = did not pass initial screen, vs (±)-epibatidine) was > 10000 nM.
With `Oc1ccc(-c2cn(C3CN4CCC3CC4)nn2)cc1` (stereo not shown) [QND8, 3-(4-hydroxyphenyl-1,2,3-triazol-1-yl) quinuclidine] the Kd [1] was 540 ± 50 nM, the “Cognitive enhancement” value [2] was “complete abolition of the cognitive enhancement; also recorded: abolished by MLA” and the Kd [3] was 80 nM and 81 nM. The EC50 [4, 6] was 900 ± 90 nM, the “Functional properties at 5HT3A receptors (agonist / antagonist, type)” value [4] was 5HT3A receptor agonist properties and the “Antagonist KA ± SD, α4β2” value ([5]; competitive antagonist (^C), >10 = did not pass initial screen, vs (±)-epibatidine) was 6.2 ± 1.7^C μM. For the same compound, the “Functional properties at α4β2-nAChRs (agonist / antagonist, type)” value [5] was “competitive antagonism”.
